Laboratory results as given in patent publication US12110295B2, “WD40 repeat domain protein 5 (WDR5) degradation/disruption compounds and methods of use” (Icahn School of Medicine at Mount Sinai, priority 2018, dated 2024).

molecular target: WDR5 (Homo sapiens, UniProt P61964); assay: Screening of putative WDR5 degraders by Western blot in MV4;11 and/or MIAPACA2 cells; assay type: cell-based; parameters: After WDR5 degrader treatment, cells were collected and lysed; endogenous in cells; host or cells: MV4;11 and/or MIAPACA2; settings: summary of screening, FIGS. 6-10
In short: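 MV4;11 (1×10^6/well) or MIAPACA2 (1×10^5/well) cells treated 18 h with compound at paired doses between 0.1 and 10 μM, DMSO as control. Total lysates immunoblotted for WDR5 with vinculin, tubulin or GAPDH loading controls; fluorescent secondary detection.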

| Compound | effective degradation of WDR5 in MV4;11 and/or MIAPACA2 cells |
| --- | --- |
| C[C@@H]1CN(c2ccc(-c3cc(CN4CCN(CCNC(=O)CCCNc5cccc6c5C(=O)N(C5CCC(=O)NC5=O)C6=O)CC4)ccc3F)cc2NC(=O)c2c[nH]c(=O)cc2C(F)(F)F)C[C@H](C)N1C (stereo partly drawn) [XF078-20, N-(5′-((4-(2-(4-((2-(2,6-dioxopiperidin-3-yl)-1,3-dioxoisoindolin-4-yl)amino)butanamido)ethyl)piperazin-1-yl)methyl)-2′-fluoro-4-((3S,5R)-3,4,5-trimethylpiperazin-1-yl)-[1,1′-biphenyl]-3-yl)-6-oxo-4-(trifluoromethyl)-1,6-dihydropyridine-3-carboxamide] | able to effectively degrade WDR5 |
| C[C@@H]1CN(c2ccc(-c3cc(CN4CCN(CCNC(=O)CCOCCOCCOCCNc5cccc6c5C(=O)N(C5CCC(=O)NC5=O)C6=O)CC4)ccc3F)cc2NC(=O)c2c[nH]c(=O)cc2C(F)(F)F)C[C@H](C)N1C (stereo partly drawn) [XF078-27, N-(5′-((4-(1-((2-(2,6-dioxopiperidin-3-yl)-1,3-dioxoisoindolin-4-yl)amino)-12-oxo-3,6,9-trioxa-13-azapentadecan-15-yl)piperazin-1-yl)methyl)-2′-fluoro-4-((3S,5R)-3,4,5-trimethylpiperazin-1-yl)-[1,1′-biphenyl]-3-yl)-6-oxo-4-(trifluoromethyl)-1,6-dihydropyridine-3-carboxamide] | able to effectively degrade WDR5 |
| C[C@@H]1CN(c2cc(F)c(C3=CCN(c4ncc(CN5CCN(C(=O)CCOCCOCCNc6cccc7c6C(=O)N(C6CCC(=O)NC6=O)C7=O)CC5)cn4)CC3)cc2NC(=O)c2c[nH]c(=O)cc2C(F)(F)F)C[C@H](C)N1C (stereo partly drawn) [XF078-157, N-(5-(1-(5-((4-(3-(2-(2-((2-(2,6-dioxopiperidin-3-yl)-1,3-dioxoisoindolin-4-yl)amino)ethoxy)ethoxy)propanoyl)piperazin-1-yl)methyl)pyrimidin-2-yl)-1,2,3,6-tetrahydropyridin-4-yl)-4-fluoro-2-((3S,5R)-3,4,5-trimethylpiperazin-1-yl)phenyl)-6-oxo-4-(trifluoromethyl)-1,6-dihydropyridine-3-carboxamide] | able to effectively degrade WDR5 |
| C[C@@H]1CN(c2ccc(-c3cc(CN4CCN(CCNC(=O)CCOCCOCCOCCOCCOCCNc5cccc6c5C(=O)N(C5CCC(=O)NC5=O)C6=O)CC4)ccc3F)cc2NC(=O)c2c[nH]c(=O)cc2C(F)(F)F)C[C@H](C)N1C (stereo partly drawn) [XF078-29, N-(5′-((4-(1-((2-(2,6-dioxopiperidin-3-yl)-1,3-dioxoisoindolin-4-yl)amino)-18-oxo-3,6,9,12,15-pentaoxa-19-azahenicosan-21-yl)piperazin-1-yl)methyl)-2′-fluoro-4-((3S,5R)-3,4,5-trimethylpiperazin-1-yl)-[1,1′-biphenyl]-3-yl)-6-oxo-4-(trifluoromethyl)-1,6-dihydropyridine-3-carboxamide] | able to effectively degrade WDR5 |
| Cc1ncsc1-c1ccc(CNC(=O)[C@@H]2C[C@@H](O)CN2C(=O)[C@@H](NC(=O)CCCCCCCCC(=O)N2CCN(Cc3cnc(N4CC=C(c5cc(NC(=O)c6c[nH]c(=O)cc6C(F)(F)F)c(N6C[C@@H](C)N(C)[C@@H](C)C6)cc5F)CC4)nc3)CC2)C(C)(C)C)cc1 [XF078-147, N-(4-fluoro-5-(1-(5-((4-(10-(((S)-1-((2S,4R)-4-hydroxy-2-((4-(4-methylthiazol-5-yl)benzyl)carbamoyl)pyrrolidin-1-yl)-3,3-dimethyl-1-oxobutan-2-yl)amino)-10-oxodecanoyl)piperazin-1-yl)methyl)pyrimidin-2-yl)-1,2,3,6-tetrahydropyridin-4-yl)-2-((3S,5R)-3,4,5-trimethylpiperazin-1-yl)phenyl)-6-oxo-4-(trifluoromethyl)-1,6-dihydropyridine-3-carboxamide] | able to effectively degrade WDR5 |
| Cc1ncsc1-c1ccc(CNC(=O)[C@@H]2C[C@@H](O)CN2C(=O)[C@@H](NC(=O)CCCCC(=O)N2CCN(Cc3cnc(N4CC=C(c5cc(NC(=O)c6c[nH]c(=O)cc6C(F)(F)F)c(N6C[C@@H](C)N(C)[C@@H](C)C6)cc5F)CC4)nc3)CC2)C(C)(C)C)cc1 [XF078-143, N-(4-fluoro-5-(1-(5-((4-(6-(((S)-1-((2S,4R)-4-hydroxy-2-((4-(4-methylthiazol-5-yl)benzyl)carbamoyl)pyrrolidin-1-yl)-3,3-dimethyl-1-oxobutan-2-yl)amino)-6-oxohexanoyl)piperazin-1-yl)methyl)pyrimidin-2-yl)-1,2,3,6-tetrahydropyridin-4-yl)-2-((3S,5R)-3,4,5-trimethylpiperazin-1-yl)phenyl)-6-oxo-4-(trifluoromethyl)-1,6-dihydropyridine-3-carboxamide] | able to effectively degrade WDR5 |
| C[C@@H]1CN(c2ccc(-c3cc(CN4CCN(CCNC(=O)CCCCCCCNc5cccc6c5C(=O)N(C5CCC(=O)NC5=O)C6=O)CC4)ccc3F)cc2NC(=O)c2c[nH]c(=O)cc2C(F)(F)F)C[C@H](C)N1C (stereo partly drawn) [XF078-24, N-(5′-((4-(2-(8-((2-(2,6-dioxopiperidin-3-yl)-1,3-dioxoisoindolin-4-yl)amino)octanamido)ethyl)piperazin-1-yl)methyl)-2′-fluoro-4-((3S,5R)-3,4,5-trimethylpiperazin-1-yl)-[1,1′-biphenyl]-3-yl)-6-oxo-4-(trifluoromethyl)-1,6-dihydropyridine-3-carboxamide] | able to effectively degrade WDR5 |
| Cc1ncsc1-c1ccc(CNC(=O)[C@@H]2C[C@@H](O)CN2C(=O)[C@@H](NC(=O)CCCCCCCNC(=O)c2ccc(-c3ccc(N4C[C@@H](C)N(C)[C@@H](C)C4)c(NC(=O)c4c[nH]c(=O)cc4C(F)(F)F)c3)c(F)c2)C(C)(C)C)cc1 [XF056-171, N-(2′-fluoro-4′-((8-(((S)-1-((2S,4R)-4-hydroxy-2-((4-(4-methylthiazol-5-yl)benzyl)carbamoyl)pyrrolidin-1-yl)-3,3-dimethyl-1-oxobutan-2-yl)amino)-8-oxooctyl)carbamoyl)-4-((3R,5S)-3,4,5-trimethylpiperazin-1-yl)-[1,1′-biphenyl]-3-yl)-6-oxo-4-(trifluoromethyl)-1,6-dihydropyridine-3-carboxamide] | able to effectively degrade WDR5 |
| C[C@@H]1CN(c2cc(F)c(C3=CCN(c4ncc(CN5CCN(C(=O)CCNc6cccc7c6C(=O)N(C6CCC(=O)NC6=O)C7=O)CC5)cn4)CC3)cc2NC(=O)c2c[nH]c(=O)cc2C(F)(F)F)C[C@H](C)N1C (stereo partly drawn) [XF078-150, N-(5-(1-(5-((4-(3-((2-(2,6-dioxopiperidin-3-yl)-1,3-dioxoisoindolin-4-yl)amino)propanoyl)piperazin-1-yl)methyl)pyrimidin-2-yl)-1,2,3,6-tetrahydropyridin-4-yl)-4-fluoro-2-((3S,5R)-3,4,5-trimethylpiperazin-1-yl)phenyl)-6-oxo-4-(trifluoromethyl)-1,6-dihydropyridine-3-carboxamide] | able to effectively degrade WDR5 |
| Cc1ncsc1-c1ccc(CNC(=O)[C@@H]2C[C@@H](O)CN2C(=O)[C@@H](NC(=O)CCCCCCC(=O)N2CCN(c3ncc(-c4cc(NC(=O)c5ccc(F)cc5C(F)(F)F)c(N5C[C@@H](C)N(C)[C@@H](C)C5)cc4F)cn3)CC2)C(C)(C)C)cc1 [XF078-112, (2S,4R)-1-((S)-2-(8-(4-(5-(2-fluoro-5-(4-fluoro-2-(trifluoromethyl)benzamido)-4-((3S,5R)-3,4,5-trimethylpiperazin-1-yl)phenyl)pyrimidin-2-yl)piperazin-1-yl)-8-oxooctanamido)-3,3-dimethylbutanoyl)-4-hydroxy-N-(4-(4-methylthiazol-5-yl)benzyl)pyrrolidine-2-carboxamide] | able to effectively degrade WDR5 |
| Cc1ncsc1-c1ccc(CNC(=O)[C@@H]2C[C@@H](O)CN2C(=O)[C@@H](NC(=O)COCC(=O)NCCN2CCN(Cc3ccc(F)c(-c4ccc(N5C[C@@H](C)N(C)[C@@H](C)C5)c(NC(=O)c5c[nH]c(=O)cc5C(F)(F)F)c4)c3)CC2)C(C)(C)C)cc1 [XF078-1, N-(2′-fluoro-5′-((4-(2-(2-(2-(((S)-1-((2S,4R)-4-hydroxy-2-((4-(4-methylthiazol-5-yl)benzyl)carbamoyl)pyrrolidin-1-yl)-3,3-dimethyl-1-oxobutan-2-yl)amino)-2-oxoethoxy)acetamido)ethyl)piperazin-1-yl)methyl)-4-((3S,5R)-3,4,5-trimethylpiperazin-1-yl)-[1,1′-biphenyl]-3-yl)-6-oxo-4-(trifluoromethyl)-1,6-dihydropyridine-3-carboxamide] | able to effectively degrade WDR5 |
| Cc1ncsc1-c1ccc(CNC(=O)[C@@H]2C[C@@H](O)CN2C(=O)[C@@H](NC(=O)COCCOCCOCCOCCOCC(=O)NCCN2CCN(Cc3ccc(F)c(-c4ccc(N5C[C@@H](C)N(C)[C@@H](C)C5)c(NC(=O)c5c[nH]c(=O)cc5C(F)(F)F)c4)c3)CC2)C(C)(C)C)cc1 [XF078-8, N^1-(2-(4-((6-fluoro-3′-(6-oxo-4-(trifluoromethyl)-1,6-dihydropyridine-3-carboxamido)-4′-((3S,5R)-3,4,5-trimethylpiperazin-1-yl)-[1,1′-biphenyl]-3-yl)methyl)piperazin-1-yl)ethyl)-N^17-((S)-1-((2S,4R)-4-hydroxy-2-((4-(4-methylthiazol-5-yl)benzyl)carbamoyl)pyrrolidin-1-yl)-3,3-dimethyl-1-oxobutan-2-yl)-3,6,9,12,15-pentaoxaheptadecanediamide] | able to effectively degrade WDR5 |
